# Reference: ChEMBL document CHEMBL2424636, “Synthesis and anticancer activity evaluation of new 1,2,3-triazole-4-carboxamide derivatives” (2013)
# How the values were obtained:
# Type in all cases: functional
# SR [1] = assay: Cytotoxicity against human SR cells assessed as cell growth at 10^-5 M after 48 hrs by SRB assay; details: read-out: Activity
# SF-539 [2] = assay: Cytotoxicity against human SF539 cells assessed as cell growth at 10^-5 M after 48 hrs by SRB assay; details: SF-539, 48 h, read-out: Activity
# MCF7 = assay: Cytotoxicity against human MCF7 cells assessed as cell growth at 10^-5 M after 48 hrs by SRB assay; details: MCF7, 48 h, read-out: Activity
# RXF 393 [3] = assay: Cytotoxicity against human RXF393 cells after 48 hrs by SRB assay; details: RXF 393, 48 h; for TGI: read-out: pTGI (converted)
# 786-0 = assay: Cytotoxicity against human 786-0 cells assessed as cell growth at 10^-5 M after 48 hrs by SRB assay; details: 786-0, 48 h, read-out: Activity
# T47D = assay: Cytotoxicity against human T47D cells assessed as cell growth at 10^-5 M after 48 hrs by SRB assay; details: read-out: Activity
# Malme-3M = assay: Cytotoxicity against human MALME-3M cells after 48 hrs by SRB assay; details: for TGI: read-out: pTGI
# SF-539 [4] = assay: Cytotoxicity against human SF539 cells after 48 hrs by SRB assay; details: SF-539, 48 h; for TGI: read-out: pTGI
# SNB-75 [5] = assay: Cytotoxicity against human SNB75 cells assessed as cell growth at 10^-5 M after 48 hrs by SRB assay; details: SNB-75, 48 h, read-out: Activity
# SNB-75 [6] = assay: Cytotoxicity against human SNB75 cells after 48 hrs by SRB assay; details: SNB-75, 48 h; for TGI: read-out: pTGI (converted)
# MDA-MB-231 = assay: Cytotoxicity against human MDA-MB-231/ATCC cells after 48 hrs by SRB assay; details: MDA-MB-231, 48 h; for TGI: read-out: pTGI
# U-251 [7] = assay: Cytotoxicity against human U251 cells after 48 hrs by SRB assay; details: U-251, 48 h; for TGI: read-out: pTGI
# SK-OV-3 = assay: Cytotoxicity against human SKOV3 cells after 48 hrs by SRB assay; details: SK-OV-3, 48 h; for TGI: read-out: pTGI
# U-251 [8] = assay: Cytotoxicity against human U251 cells assessed as cell growth at 10^-5 M after 48 hrs by SRB assay; details: U-251, 48 h, read-out: Activity
# TK-10 = assay: Cytotoxicity against human TK10 cells after 48 hrs by SRB assay; details: TK-10, 48 h; for TGI: read-out: pTGI
# PC-3 = assay: Cytotoxicity against human PC3 cells assessed as cell growth at 10^-5 M after 48 hrs by SRB assay; details: PC-3, 48 h, read-out: Activity
# HOP-92 [9] = assay: Cytotoxicity against human HOP92 cells assessed as cell growth at 10^-5 M after 48 hrs by SRB assay; details: HOP-92, 48 h, read-out: Activity
# [10] = Cytotoxicity against human EKVX cells assessed as cell growth at 10^-5 M after 48 hrs by SRB assay; details: read-out: Activity
# CCRF-CEM = assay: Cytotoxicity against human CCRF-CEM cells assessed as cell growth at 10^-5 M after 48 hrs by SRB assay; details: read-out: Activity
# A498 = assay: Cytotoxicity against human A498 cells assessed as cell growth at 10^-5 M after 48 hrs by SRB assay; details: A498, 48 h, read-out: Activity
# SK-MEL-5 = assay: Cytotoxicity against human SK-MEL-5 cells assessed as cell growth at 10^-5 M after 48 hrs by SRB assay; details: SK-MEL-5, 48 h, read-out: Activity
# RPMI-8226 = assay: Cytotoxicity against human RPMI8226 cells assessed as cell growth at 10^-5 M after 48 hrs by SRB assay; details: RPMI-8226, 48 h, read-out: Activity
# MDA-MB-468 = assay: Cytotoxicity against human MDA-MB-468 cells assessed as cell growth at 10^-5 M after 48 hrs by SRB assay; details: MDA-MB-468, 48 h, read-out: Activity
# UO-31 = assay: Cytotoxicity against human UO31 cells assessed as cell growth at 10^-5 M after 48 hrs by SRB assay; details: UO-31, 48 h, read-out: Activity
# UACC-62 = assay: Cytotoxicity against human UACC62 cells assessed as cell growth at 10^-5 M after 48 hrs by SRB assay; details: UACC-62, 48 h, read-out: Activity
# NCI-H522 = assay: Cytotoxicity against human NCI-H522 cells assessed as cell growth at 10^-5 M after 48 hrs by SRB assay; details: NCI-H522, 48 h, read-out: Activity
# RXF 393 [11] = assay: Cytotoxicity against human RXF393 cells assessed as cell growth at 10^-5 M after 48 hrs by SRB assay; details: RXF 393, 48 h, read-out: Activity
# HOP-92 [12] = assay: Cytotoxicity against human HOP92 cells after 48 hrs by SRB assay; details: HOP-92, 48 h
# OVCAR-4 = assay: Cytotoxicity against human OVCAR4 cells after 48 hrs by SRB assay; details: OVCAR-4, 48 h
# Hs-578T = assay: Cytotoxicity against human Hs578T cells after 48 hrs by SRB assay
# SF-268 [13] = assay: Cytotoxicity against human SF268 cells after 48 hrs by SRB assay; details: SF-268, 48 h
# SR [14] = assay: Cytotoxicity against human SR cells after 48 hrs by SRB assay
# SF-295 = assay: Cytotoxicity against human SF295 cells after 48 hrs by SRB assay; details: SF-295, 48 h
# K562 [15] = assay: Cytotoxicity against human K562 cells after 48 hrs by SRB assay; details: K562, 48 h
# K562 [16] = assay: Cytotoxicity against human K562 cells assessed as cell growth at 10^-5 M after 48 hrs by SRB assay; details: K562, 48 h, read-out: Activity
# MOLT-4 = assay: Cytotoxicity against human MOLT4 cells assessed as cell growth at 10^-5 M after 48 hrs by SRB assay; details: MOLT-4, 48 h, read-out: Activity
# HL-60(TB) = assay: Cytotoxicity against human HL-60(TB) cells assessed as cell growth at 10^-5 M after 48 hrs by SRB assay; details: HL-60, 48 h, read-out: Activity
# OVCAR-8 = assay: Cytotoxicity against human OVCAR8 cells assessed as cell growth at 10^-5 M after 48 hrs by SRB assay; details: OVCAR-8, 48 h, read-out: Activity
# SF-268 [17] = assay: Cytotoxicity against human SF268 cells assessed as cell growth at 10^-5 M after 48 hrs by SRB assay; details: SF-268, 48 h, read-out: Activity
# HOP-62 = assay: Cytotoxicity against human HOP62 cells assessed as cell growth at 10^-5 M after 48 hrs by SRB assay; details: HOP-62, 48 h, read-out: Activity
structure (smiles),measurement,setting,value
Cc1cc(C)cc(-n2nnc(C(=O)NC(C)C)c2N)c1,growth at 10 µM,SR [1],83.6%
same,growth at 10 µM,SF-539 [2],78.9%
same,growth at 10 µM,MCF7,83.3%
COc1ccc(NC(=O)c2nnn(-c3ccc(F)cc3)c2N)c(OC)c1,GI50,RXF 393 [3],37.2 µM
same,TGI,RXF 393 [3],> 100 µM
same,growth at 10 µM,786-0,-1.64%
same,growth at 10 µM,T47D,-2.61%
same,growth at 10 µM,SF-539 [2],-4.64%
same,GI50,Malme-3M,12.9 µM
same,TGI,Malme-3M,> 100 µM
same,GI50,SF-539 [4],17.8 µM
same,TGI,SF-539 [4],> 100 µM
same,growth at 10 µM,SNB-75 [5],-27.3%
same,GI50,SNB-75 [6],3890 nM
same,TGI,SNB-75 [6],> 100 µM
same,GI50,MDA-MB-231,6.46 µM
same,TGI,MDA-MB-231,> 100 µM
same,GI50,U-251 [7],11.7 µM
same,TGI,U-251 [7],> 100 µM
same,GI50,SK-OV-3,13.8 µM
same,TGI,SK-OV-3,> 100 µM
same,growth at 10 µM,U-251 [8],-9.89%
same,GI50,TK-10,30.2 µM
same,TGI,TK-10,> 100 µM
COc1ccc(NC(=O)c2nnn(-c3ccc(C)cc3)c2N)cc1,growth at 10 µM,PC-3,74.3%
same,growth at 10 µM,HOP-92 [9],69.4%
Cc1cccc(C)c1NC(=O)c1nnn(-c2ccc(F)cc2)c1N,growth at 10 µM,SR [1],66.7%
same,growth at 10 µM,[10],75.9%
same,growth at 10 µM,HOP-92 [9],76.8%
same,growth at 10 µM,CCRF-CEM,64%
same,growth at 10 µM,A498,78.7%
Cc1ccccc1-n1nnc(C(=O)Nc2ccc(Cl)cc2Cl)c1N,growth at 10 µM,[10],56.7%
same,growth at 10 µM,T47D,60.9%
same,growth at 10 µM,SK-MEL-5,55.9%
same,growth at 10 µM,RPMI-8226,59.6%
Nc1c(C(=O)c2c[nH]c3ccccc23)nnn1-c1ccccc1,growth at 10 µM,MCF7,73.7%
same,growth at 10 µM,MDA-MB-468,78.5%
CCc1c(C(=O)Nc2ccc(Cl)cc2)nnn1-c1ccc2noc(-c3ccccc3)c2c1,growth at 10 µM,UO-31,67.8%
same,growth at 10 µM,SR [1],85.1%
same,growth at 10 µM,UACC-62,83.6%
same,growth at 10 µM,NCI-H522,88.9%
CCc1nnc(NC(=O)c2nnn(-c3ccc(C)cc3)c2N)s1,growth at 10 µM,T47D,77.4%
same,growth at 10 µM,SNB-75 [5],76.2%
same,growth at 10 µM,HOP-92 [9],71.5%
Cc1ccc(-n2nnc(C(=O)Nc3cc(Cl)ccc3Cl)c2N)cc1,GI50,RXF 393 [3],3.47 µM
same,TGI,RXF 393 [3],50.1 µM
same,growth at 10 µM,UO-31,-7.62%
same,growth at 10 µM,786-0,2.96%
same,growth at 10 µM,RXF 393 [11],-13.4%
same,GI50,HOP-92 [12],589 nM
same,TGI,HOP-92 [12]; read-out: pTGI (converted),5.89 µM
same,GI50,OVCAR-4,1620 nM
same,TGI,OVCAR-4; read-out: pTGI,> 100 µM
same,GI50,Malme-3M,2.45 µM
same,TGI,Malme-3M,> 100 µM
same,GI50,SF-539 [4],4.27 µM
same,TGI,SF-539 [4],> 100 µM
same,growth at 10 µM,SNB-75 [5],1.32%
same,GI50,Hs-578T,4.47 µM
same,TGI,Hs-578T; read-out: pTGI,> 100 µM
same,GI50,SNB-75 [6],1380 nM
same,TGI,SNB-75 [6],6.03 µM
same,GI50,SF-268 [13],5.5 µM
same,TGI,SF-268 [13]; read-out: pTGI,> 100 µM
same,growth at 10 µM,HOP-92 [9],-3.42%
same,GI50,SR [14],2510 nM
same,TGI,SR [14]; read-out: pTGI (converted),60.3 µM
same,GI50,MDA-MB-231,6.17 µM
same,TGI,MDA-MB-231,> 100 µM
same,GI50,U-251 [7],6.03 µM
same,TGI,U-251 [7],> 100 µM
same,GI50,SK-OV-3,2.82 µM
same,TGI,SK-OV-3,> 100 µM
same,GI50,TK-10,5.89 µM
same,TGI,TK-10,> 100 µM
same,GI50,SF-295,5.01 µM
same,TGI,SF-295; read-out: pTGI,> 100 µM
same,GI50,K562 [15],7.76 µM
same,TGI,K562 [15]; read-out: pTGI,> 100 µM
Cc1c(C(=O)Nc2cccc(C(F)(F)F)c2)nnn1-c1ccc2noc(-c3ccccc3)c2c1,growth at 10 µM,K562 [16],89.8%
same,growth at 10 µM,UO-31,78.5%
Nc1c(C(=O)NC2CCCC2)nnn1-c1cccc(C(F)(F)F)c1,growth at 10 µM,NCI-H522,87%
same,growth at 10 µM,A498,89.1%
CCc1c(C(=O)Nc2cccc(Cl)c2)nnn1-c1ccc2noc(-c3ccccc3)c2c1,growth at 10 µM,UO-31,82.6%
same,growth at 10 µM,SR [1],77.6%
same,growth at 10 µM,MCF7,81.7%
Cc1ccc(-n2nnc(C(=O)NCc3ccccc3)c2N)cc1,growth at 10 µM,SR [1],68.2%
same,growth at 10 µM,MOLT-4,75.8%
COc1ccc(NC(=O)c2nnn(-c3cccc(C(F)(F)F)c3)c2N)c(OC)c1,growth at 10 µM,K562 [16],71.7%
same,growth at 10 µM,HL-60(TB),78.4%
same,growth at 10 µM,HOP-92 [9],77.3%
Cc1c(C(=O)NCc2ccco2)nnn1-c1ccc2noc(-c3ccc(Cl)cc3)c2c1,growth at 10 µM,UO-31,52%
same,growth at 10 µM,UACC-62,64.2%
same,growth at 10 µM,RPMI-8226,65.3%
same,growth at 10 µM,A498,56.2%
same,growth at 10 µM,MDA-MB-468,68%
CCc1ccc(NC(=O)c2nnn(-c3ccc(OC)cc3)c2N)cc1,growth at 10 µM,SK-MEL-5,56.3%
same,growth at 10 µM,RPMI-8226,60.9%
same,growth at 10 µM,MDA-MB-468,62.6%
COc1ccccc1-n1nnc(C(=O)Nc2ncc(Cc3ccccc3)s2)c1C,growth at 10 µM,UO-31,73.3%
same,growth at 10 µM,OVCAR-8,68%
same,growth at 10 µM,SNB-75 [5],53.9%
same,growth at 10 µM,SF-268 [17],75.5%
same,growth at 10 µM,HOP-62,54.8%
same,growth at 10 µM,U-251 [8],75.6%
Cc1ccc(-n2nnc(C(=O)Nc3ncc(Cc4cccc(Cl)c4)s3)c2C)cc1,growth at 10 µM,UO-31,70.8%
same,growth at 10 µM,[10],74.9%
same,growth at 10 µM,UACC-62,76.6%
same,growth at 10 µM,RPMI-8226,62.7%
same,growth at 10 µM,CCRF-CEM,63.3%
CCc1c(C(=O)Nc2ccccc2Cl)nnn1-c1ccc2noc(-c3ccccc3)c2c1,growth at 10 µM,RPMI-8226,76.2%
same,growth at 10 µM,PC-3,60.6%
same,growth at 10 µM,HOP-92 [9],58.4%
same,growth at 10 µM,HOP-62,74.2%
Nc1c(C(=O)Nc2ccc(F)cc2)nnn1-c1cccc(C(F)(F)F)c1,growth at 10 µM,RPMI-8226,81.4%
same,growth at 10 µM,MCF7,82.5%
same,growth at 10 µM,A498,81.7%
